Measured values reported in ChEMBL document CHEMBL5030507, “Structure-Based Design of a Selective Class I Histone Deacetylase (HDAC) Near-Infrared (NIR) Probe for Epigenetic Regulation Detection in Triple-Negative Breast Cancer (TNBC)” (J Med Chem, 2021).

Legend:
[1] = molecular target: Histone deacetylase 3/Nuclear receptor corepressor 2 (HDAC3/NCoR2) (Homo sapiens, UniProt O15379); test: Inhibition of C-terminal His-tagged recombinant human HDAC3 (1 to 428 residues)/N-terminal GST-tagged recombinant human NCoR2 (395 to 489 residues) co-expressed in baculovirus infected Sf9 cells using fluorometric substrate measured after 60 mins by FRET assay
Sequence of Histone deacetylase 3/Nuclear receptor corepressor 2 (HDAC3/NCoR2) (O15379 whole entry, the tested form may be a part): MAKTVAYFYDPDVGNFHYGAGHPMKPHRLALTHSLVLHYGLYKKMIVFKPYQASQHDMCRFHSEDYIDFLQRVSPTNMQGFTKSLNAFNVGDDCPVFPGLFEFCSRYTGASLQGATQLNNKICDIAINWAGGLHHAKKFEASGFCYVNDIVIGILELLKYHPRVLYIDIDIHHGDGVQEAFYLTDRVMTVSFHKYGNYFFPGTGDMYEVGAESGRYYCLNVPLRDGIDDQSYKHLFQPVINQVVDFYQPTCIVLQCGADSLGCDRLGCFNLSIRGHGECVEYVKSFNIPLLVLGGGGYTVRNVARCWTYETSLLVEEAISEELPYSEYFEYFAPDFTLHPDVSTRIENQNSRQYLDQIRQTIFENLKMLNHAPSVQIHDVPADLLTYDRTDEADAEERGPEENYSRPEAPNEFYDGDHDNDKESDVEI
Sequence of Histone deacetylase 3/Nuclear receptor corepressor 2 (HDAC3/NCoR2) (Q9Y618 whole entry, further chain, the tested form may be a part): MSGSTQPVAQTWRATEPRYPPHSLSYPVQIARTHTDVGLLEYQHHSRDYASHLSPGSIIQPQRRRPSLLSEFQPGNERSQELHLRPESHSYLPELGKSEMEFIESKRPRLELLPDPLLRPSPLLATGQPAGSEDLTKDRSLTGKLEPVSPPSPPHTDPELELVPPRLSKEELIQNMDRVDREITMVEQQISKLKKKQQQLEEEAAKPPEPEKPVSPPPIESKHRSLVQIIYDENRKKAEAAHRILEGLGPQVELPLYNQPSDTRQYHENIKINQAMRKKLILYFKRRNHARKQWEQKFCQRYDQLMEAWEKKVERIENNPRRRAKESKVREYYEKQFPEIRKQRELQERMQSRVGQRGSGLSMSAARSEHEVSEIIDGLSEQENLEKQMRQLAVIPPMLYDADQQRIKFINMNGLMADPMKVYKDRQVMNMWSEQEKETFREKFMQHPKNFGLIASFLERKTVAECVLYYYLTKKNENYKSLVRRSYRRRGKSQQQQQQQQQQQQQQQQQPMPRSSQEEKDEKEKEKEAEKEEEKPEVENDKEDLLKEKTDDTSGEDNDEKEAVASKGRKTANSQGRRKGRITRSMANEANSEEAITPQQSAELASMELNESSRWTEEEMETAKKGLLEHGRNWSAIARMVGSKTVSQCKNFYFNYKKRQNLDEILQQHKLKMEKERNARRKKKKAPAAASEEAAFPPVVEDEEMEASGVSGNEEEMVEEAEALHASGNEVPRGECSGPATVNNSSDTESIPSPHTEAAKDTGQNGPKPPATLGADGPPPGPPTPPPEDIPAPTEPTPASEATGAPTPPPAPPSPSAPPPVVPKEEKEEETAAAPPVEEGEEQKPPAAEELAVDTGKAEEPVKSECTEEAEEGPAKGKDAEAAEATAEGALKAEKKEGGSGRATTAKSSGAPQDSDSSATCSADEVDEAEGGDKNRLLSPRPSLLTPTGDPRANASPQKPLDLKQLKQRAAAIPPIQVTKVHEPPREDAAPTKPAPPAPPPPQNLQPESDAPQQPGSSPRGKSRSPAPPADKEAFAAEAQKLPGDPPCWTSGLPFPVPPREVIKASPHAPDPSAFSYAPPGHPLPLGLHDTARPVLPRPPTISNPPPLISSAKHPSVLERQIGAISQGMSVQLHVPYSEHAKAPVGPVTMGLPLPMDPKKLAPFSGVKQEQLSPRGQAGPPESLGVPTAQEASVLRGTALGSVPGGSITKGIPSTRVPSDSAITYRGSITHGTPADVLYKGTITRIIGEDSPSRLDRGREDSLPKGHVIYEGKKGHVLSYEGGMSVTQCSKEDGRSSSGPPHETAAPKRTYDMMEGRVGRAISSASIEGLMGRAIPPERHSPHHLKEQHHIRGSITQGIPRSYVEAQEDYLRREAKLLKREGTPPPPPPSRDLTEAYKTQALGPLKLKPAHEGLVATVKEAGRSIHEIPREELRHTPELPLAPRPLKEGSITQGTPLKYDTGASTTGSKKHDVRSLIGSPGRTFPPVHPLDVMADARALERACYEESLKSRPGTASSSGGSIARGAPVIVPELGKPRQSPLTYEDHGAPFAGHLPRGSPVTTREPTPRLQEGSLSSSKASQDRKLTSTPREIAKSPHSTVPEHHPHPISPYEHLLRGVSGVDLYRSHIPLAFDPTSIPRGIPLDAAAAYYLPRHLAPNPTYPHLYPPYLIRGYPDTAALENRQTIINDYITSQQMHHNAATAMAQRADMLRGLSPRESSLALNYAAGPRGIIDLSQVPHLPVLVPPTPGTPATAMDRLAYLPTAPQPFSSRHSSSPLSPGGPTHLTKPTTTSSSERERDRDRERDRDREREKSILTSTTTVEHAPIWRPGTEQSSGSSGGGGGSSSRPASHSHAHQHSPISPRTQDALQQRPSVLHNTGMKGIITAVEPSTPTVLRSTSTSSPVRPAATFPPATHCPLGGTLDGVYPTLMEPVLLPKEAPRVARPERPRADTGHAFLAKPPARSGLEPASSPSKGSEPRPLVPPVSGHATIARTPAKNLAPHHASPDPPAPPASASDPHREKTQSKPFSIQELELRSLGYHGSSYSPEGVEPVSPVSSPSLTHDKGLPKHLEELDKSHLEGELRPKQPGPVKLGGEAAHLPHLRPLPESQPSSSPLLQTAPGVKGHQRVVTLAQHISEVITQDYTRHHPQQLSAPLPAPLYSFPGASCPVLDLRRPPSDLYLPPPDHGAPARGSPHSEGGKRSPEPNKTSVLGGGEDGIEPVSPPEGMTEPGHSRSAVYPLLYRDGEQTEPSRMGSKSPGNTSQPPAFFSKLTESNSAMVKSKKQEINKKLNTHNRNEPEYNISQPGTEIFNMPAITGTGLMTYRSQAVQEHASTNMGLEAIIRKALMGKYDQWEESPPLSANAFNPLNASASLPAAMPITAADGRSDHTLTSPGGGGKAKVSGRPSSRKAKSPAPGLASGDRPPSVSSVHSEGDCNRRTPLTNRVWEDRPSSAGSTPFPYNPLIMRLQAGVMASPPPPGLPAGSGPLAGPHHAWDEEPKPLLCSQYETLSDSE

[2] = molecular target: T1, Histone deacetylase 8 (Homo sapiens, UniProt Q9BY41); test: Inhibition of recombinant human full length C-terminal His-tagged HDAC8 expressed in baculovirus infected Sf9 insect cells using fluorometric substrate measured after 60 mins by FRET assay
T1 sequence (Q9BY41 whole entry): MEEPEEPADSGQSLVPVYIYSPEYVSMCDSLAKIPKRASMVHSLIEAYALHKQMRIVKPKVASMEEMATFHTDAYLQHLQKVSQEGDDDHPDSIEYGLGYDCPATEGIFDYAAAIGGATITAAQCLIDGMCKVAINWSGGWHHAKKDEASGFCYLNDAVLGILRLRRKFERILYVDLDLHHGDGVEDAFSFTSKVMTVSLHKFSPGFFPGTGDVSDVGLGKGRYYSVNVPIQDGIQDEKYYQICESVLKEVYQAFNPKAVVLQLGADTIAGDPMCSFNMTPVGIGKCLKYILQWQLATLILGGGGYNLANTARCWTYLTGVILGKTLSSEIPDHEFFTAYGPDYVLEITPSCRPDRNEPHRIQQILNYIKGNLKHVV

[3] = molecular target: T2, Protein deacetylase HDAC6 (Homo sapiens, UniProt Q9UBN7); test: Inhibition of recombinant human full length N-terminal GST-tagged HDAC6 expressed in Sf9 cells using fluorogenic substrate measured after 60 mins by FRET assay
T2 sequence (Q9UBN7 whole entry): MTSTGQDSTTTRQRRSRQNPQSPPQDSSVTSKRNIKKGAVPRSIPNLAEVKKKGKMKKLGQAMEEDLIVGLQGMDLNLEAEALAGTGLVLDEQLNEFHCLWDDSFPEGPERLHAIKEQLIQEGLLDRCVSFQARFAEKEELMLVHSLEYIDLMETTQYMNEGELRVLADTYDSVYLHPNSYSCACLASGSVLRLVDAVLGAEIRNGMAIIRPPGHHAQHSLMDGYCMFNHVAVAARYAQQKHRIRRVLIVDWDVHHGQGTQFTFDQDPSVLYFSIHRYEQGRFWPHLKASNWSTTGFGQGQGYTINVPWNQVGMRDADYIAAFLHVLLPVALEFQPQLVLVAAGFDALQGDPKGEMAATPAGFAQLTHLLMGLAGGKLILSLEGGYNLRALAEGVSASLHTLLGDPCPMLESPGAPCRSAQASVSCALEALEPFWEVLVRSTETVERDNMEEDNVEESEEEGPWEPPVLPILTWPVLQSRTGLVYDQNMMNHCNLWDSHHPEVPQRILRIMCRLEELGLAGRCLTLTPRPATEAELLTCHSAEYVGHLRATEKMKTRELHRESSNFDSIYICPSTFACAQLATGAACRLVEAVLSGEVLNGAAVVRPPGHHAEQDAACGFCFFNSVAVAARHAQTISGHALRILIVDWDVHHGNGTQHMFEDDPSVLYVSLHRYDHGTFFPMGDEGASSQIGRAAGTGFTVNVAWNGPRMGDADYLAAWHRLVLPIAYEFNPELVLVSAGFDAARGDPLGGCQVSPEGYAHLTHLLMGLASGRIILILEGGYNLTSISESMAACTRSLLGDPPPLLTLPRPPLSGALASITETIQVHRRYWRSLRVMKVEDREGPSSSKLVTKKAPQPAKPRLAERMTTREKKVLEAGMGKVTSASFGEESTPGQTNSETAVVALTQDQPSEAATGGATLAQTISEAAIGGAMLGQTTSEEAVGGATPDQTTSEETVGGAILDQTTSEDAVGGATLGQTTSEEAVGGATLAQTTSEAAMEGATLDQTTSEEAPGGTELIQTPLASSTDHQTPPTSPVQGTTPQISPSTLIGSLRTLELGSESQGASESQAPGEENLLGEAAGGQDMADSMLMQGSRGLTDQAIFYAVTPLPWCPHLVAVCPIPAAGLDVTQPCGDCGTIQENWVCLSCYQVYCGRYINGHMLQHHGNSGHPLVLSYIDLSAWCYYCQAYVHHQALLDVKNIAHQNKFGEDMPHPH

[4] = molecular target: T3, Histone deacetylase 11 (Homo sapiens, UniProt Q96DB2); test: Inhibition of recombinant human full length HDAC11 expressed in baculovirus infected Sf9 cells measured after 60 mins by FRET assay
T3 sequence (Q96DB2 whole entry): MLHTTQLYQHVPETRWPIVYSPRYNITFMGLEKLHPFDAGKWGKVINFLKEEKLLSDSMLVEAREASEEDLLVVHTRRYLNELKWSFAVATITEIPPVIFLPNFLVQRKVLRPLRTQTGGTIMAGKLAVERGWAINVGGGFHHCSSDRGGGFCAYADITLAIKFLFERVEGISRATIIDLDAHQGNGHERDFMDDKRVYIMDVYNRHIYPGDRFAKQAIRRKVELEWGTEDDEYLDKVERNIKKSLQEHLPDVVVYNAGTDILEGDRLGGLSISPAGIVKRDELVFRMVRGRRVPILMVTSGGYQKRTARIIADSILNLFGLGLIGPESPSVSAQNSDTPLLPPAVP

IC50 [1]: 0.0103 µM
IC50 [2]: > 10 µM
IC50 [3]: > 10 µM
IC50 [4]: > 10 µM
Structure (SMILES): C/C=C1\NC(=O)c2csc(n2)CNC(=O)C[C@@H](/C=C/CCSSCCCCCCC)OC(=O)[C@H](CCCCN)NC1=O
